EC50 data for 23 molecules are collected here from patent US12180226B2, “Spirotricycle RIPK1 inhibitors and methods of uses thereof” (Merck Sharp & Dohme LLC, priority 2021, dated 2024).

The target of this assay is RIPK1 (recombinant GST-RIPK1 kinase domain, residues 1-327) (Homo sapiens (Human), UniProt Q13546). As to the kind of experiment: RIPK1-ADP-Glo Enzymatic Assay. Format: biochemical. The note with it: ADP-Glo; 25 nM GST-RIPK1, 300 μM ATP; assay lower limit ~25 nM; read-out: RIPK1 V0 Ec50. The procedure: RIPK1-ADP-Glo Enzymatic Assay
Sequence of RIPK1 (recombinant GST-RIPK1 kinase domain, residues 1-327) (Q13546 1-327): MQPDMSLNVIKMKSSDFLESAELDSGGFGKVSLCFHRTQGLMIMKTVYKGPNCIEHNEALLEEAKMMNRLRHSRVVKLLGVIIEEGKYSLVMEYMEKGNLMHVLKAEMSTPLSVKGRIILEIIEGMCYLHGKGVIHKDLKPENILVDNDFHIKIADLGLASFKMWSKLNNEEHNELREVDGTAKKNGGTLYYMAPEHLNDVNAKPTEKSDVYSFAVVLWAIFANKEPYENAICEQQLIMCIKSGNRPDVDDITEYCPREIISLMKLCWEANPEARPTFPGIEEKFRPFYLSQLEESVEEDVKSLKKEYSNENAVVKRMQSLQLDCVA
The enzymatic activity of RIPK1 is measured using an assay derived from ADP-Glo kit (TMPromega), which provides a luminescent-based ADP detection system. Specifically, the ADP generated by RIPK1 kinase is proportionally detected as luminescent signals in a homogenous fashion. In this context, the assessment of the inhibitory effect of small molecules (EC50) is measured by the effectiveness of the compounds to inhibit the ATP to ADP conversion by RIPK1.
In this assay, the potency (EC50) of each compound was determined from a ten-point (1:3 serial dilution; top compound concentration of 100000 nM) titration curve using the following outlined procedure. The assay bottom or lower limit of confidence is ˜25 nM. To each well of a white ProxiPlus 384 well-plate, 30 nL of compound (1% DMSO in final assay volume of 3 μL) was dispensed, followed by the addition of 2 μL of 1×assay buffer (25 mM Hepes 7.3, 20 mM MgCl2, 50 mM NaCl, 1 mM DTT, 0.005% Tween20, and 0.02% BSA) containing 37.5 nM of GST-RIPK1 (recombinant GST-RIPK1 kinase domain (residues 1-327) enzyme produced from baculovirus-transfected Sf21 cells: MW=62 kDa). Plates were placed in an ambient temperature humidified chamber for a 30-minute pre-incubation with compound. Subsequently, each reaction was initiated by the addition of 1 μL 1×assay buffer containing 900 μM ATP and […] dephosphorylated-MBP substrate. The final reaction in each well of 3 μL consists of 25 nM of GST-RIPK1, 300 μM ATP, and 3 μM dephosphorylated-MBP. Kinase reactions were allowed to proceed for 150 minutes prior to adding ADP-Glo reagents per Promega's outlined kit protocol. Dose-response curves were generated by plotting percent effect (% product conversion; Y-axis) vs. Log10 compound concentrations (X-axis). EC50 values were calculated using a non-linear regression, four-parameters sigmoidal dose-response model.

The structures appear in SMILES notation. Counter-ions that a name gives are not always drawn.

As for `O=C1N2[C@@H](CC[C@H]2c2cc(F)cc(F)c2)OC12CCN(c1cncc3ncnn13)CC2` [Example 13.4, (5′S,7a′R)-1-([1,2,4]triazolo[1,5-a]pyrazin-5-yl)-5′-(3,5-difluorophenyl)tetrahydro-3′H-spiro[piperidine-4,2′-pyrrolo[2,1-b]oxazol]-3′-one, TFA salt], the EC50 was 56 nM.

Regarding `O=C1N2[C@@H](CC[C@H]2c2ccccc2)OC12CCN(c1ncc(-c3ncco3)cn1)CC2` [Example 21.15, (5′S,7a′R)-1-[5-(1,3-oxazol-2-yl)pyrimidin-2-yl]-5′-phenyltetrahydro-3′H-spiro[piperidine-4,2′-pyrrolo[2,1-b][1,3]oxazol]-3′-one], the EC50 was less than 25 nM.

`COc1ncccc1C(=O)N1CCC2(CC1)O[C@@H]1CC[C@@H](c3cc(F)cc(F)c3)N1C2=O` [Example 6.18, (5′S,7a′R)-5′-(3,5-difluorophenyl)-1-(2-methoxypyridine-3-carbonyl)tetrahydro-3′H-spiro[piperidine-4,2′-pyrrolo[2,1-b] [1,3]oxazol]-3′-one]: the EC50 came to 154 nM.

As for `O=C(c1nc(N2CCC3(CC2)O[C@@H]2CC[C@@H](c4cc(F)cc(F)c4)N2C3=O)ncc1F)N1CC(C(F)F)C1` [Example 7.8, (5′S,7a′R)-1-{4-[3-(difluoromethyl)azetidine-1-carbonyl]-5-fluoropyrimidin-2-yl}-5′-(3,5-difluorophenyl)tetrahydro-3′H-spiro[piperidine-4,2′-pyrrolo[2,1-b][1,3]oxazol]-3′-one], the EC50 is less than 25 nM.

Take `Cc1nc(C(=O)N2CCC3(CC2)O[C@@H]2CC[C@@H](c4cccc(F)c4)N2C3=O)c(C)o1` [Example 6.126, (5′S,7a′R)-1-(2,5-dimethyl-1,3-oxazole-4-carbonyl)-5′-(3-fluorophenyl)tetra-hydro-3′H-spiro[piperi-dine-4,2′-pyrrolo[2,1-b][1,3]oxazol]-3′-one]: the 50% effective concentration (EC50) is 619 nM.

With `N#CCc1nc(C(=O)N2CCC3(CC2)O[C@@H]2CC[C@@H](c4cc(F)cc(F)c4)N2C3=O)cs1` [Example 6.29, {4-[(5′S,7a′R)-5′-(3,5-difluorophenyl)-3-oxo-tetrahydro-1H,3′H-spiro[piperidine-4,2′-pyrrolo[2,1-b][1,3]oxazole]-1-carbonyl]-1,3-thiazol-2-yl} acetonitrile], the EC50 came to 413 nM.

For `O=C1N2[C@@H](CC[C@H]2c2ccccc2F)OC12CN(Cc1ccccc1)C2` [Example 22.7, (5′S,7a′R)-1-benzyl-5′-(2-fluorophenyl)tetrahydro-3′H-spiro[azetidine-3,2′-pyrrolo[2,1-b][1,3]oxazol]-3′-one], the EC50 was found to be 103 nM.

In the case of `O=C1N2[C@@H](CC[C@H]2c2ccccc2)OC12CCN(c1nccc(C3CC3)n1)CC2` [Example 11.12, (5′S,7a′R)-1-(4-cyclopropylpyrimidin-2-yl)-5′-phenyltetrahydro-3′H-spiro[piperidine-4,2′-pyrrolo[2,1-b][1,3]oxazol]-3′-one], the EC50 came to 97.7 nM.

In the case of `Cc1nc(N2CCC3(CC2)O[C@@H]2CC[C@@H](c4cc(F)cc(F)c4)N2C3=O)ncc1F` [Example 4.61, (5′S,7a′R)-5′-(3,5-difluorophenyl)-1-(5-fluoro-4-methylpyrimidin-2-yl)tetrahydro-3′H-spiro[piperidine-4,2′-pyrrolo[2,1-b] [1,3]oxazol]-3′-one], the half-maximal effective concentration (EC50) came to 53.4 nM.

Take `O=C1N2[C@@H](CC[C@H]2c2ccccc2F)OC12CN(c1ccnc(Cl)c1)C2` [Example 4.109, (5′S,7a′R)-1-(2-chloropyridin-4-yl)-5′-(2-fluorophenyl)tetrahydro-3′H-spiro[azetidine-3,2′-pyrrolo[2,1-b]oxazol]-3′-one]: the EC50 came out at 37.8 nM.

On to `O=C1N2[C@H](CC[C@H]2c2cccc(F)c2)OC12CCN(c1ccnc3c(F)cnn13)CC2` [Example 4.15, (5′S,7a′S)-5′-(3-fluorophenyl)-1-(3-fluoropyrazolo[1,5-a]pyrimidin-7-yl)tetrahydro-3′H-spiro[piperidine-4,2′-pyrrolo[2,1-b] [1,3]oxazol]-3′-one], for which the EC50 was less than 25 nM.

For the molecule `O=C1N2[C@@H](CC[C@H]2c2cccc(F)c2)OC12CCN(c1ccnc3ccnn13)CC2` [Example 4.123, (5′S,7a′R)-5′-(3-fluorophenyl)-1-(pyrazolo[1,5-a]pyrimidin-7-yl)tetrahydro-3′H-spiro[piperidine-4,2′-pyrrolo[2,1-b] [1,3]oxazol]-3′-one], the concentration for a half-maximal effect (EC50) is less than 25 nM.

Take `Cc1cc2nccc(N3CCC4(CC3)O[C@@H]3CC[C@@H](c5cc(F)cc(F)c5)N3C4=O)n2n1` [Example 4.85, (5′S,7a′R)-5′-(3,5-difluorophenyl)-1-(2-methylpyrazolo[1,5-a]pyrimidin-7-yl)tetrahydro-3′H-spiro[piperidine-4,2′-pyrrolo[2,1-b]oxazol]-3′-one, TFA salt]: the EC50 worked out at 63.4 nM.

Take `O=C1N2[C@@H](CC[C@H]2c2ccccc2)OC12CCN(c1nccc(-c3ccccn3)n1)CC2` [Example 11.11, (5′S,7a′R)-5′-phenyl-1-[4-(pyridin-2-yl)pyrimidin-2-yl]tetrahydro-3′H-spiro[piperidine-4,2′-pyrrolo[2,1-b][1,3]oxazol]-3′-one]: the 50% effective concentration (EC50) worked out at 42 nM.

Turning to `Cc1ccc(C(=O)N2CCC3(CC2)O[C@@H]2CC[C@@H](c4cc(F)cc(F)c4)N2C3=O)cn1` [Example 6.69, (5′S,7a′R)-5′-(3,5-difluorophenyl)-1-(6-methylpyridine-3-carbonyl)tetrahydro-3′H-spiro[piperidine-4,2′-pyrrolo[2,1-b] [1,3]oxazol]-3′-one], the EC50 stood at 46.8 nM.

Consider `N#Cc1ccc(N2CCC3(CC2)O[C@@H]2CC[C@@H](c4ccccc4F)N2C3=O)n2ncnc12` [Example 4.249, 5-[(5′S,7a′R)-5′-(2-fluorophenyl)-3′-oxotetrahydro-1H,3′H-spiro[piperidine-4,2′-pyrrolo[2,1-b] [1,3]oxazol]-1-yl][1,2,4]triazolo[1,5-a] pyridine-8-carbonitrile], for which the EC50 was less than 25 nM.

For `O=C1N2[C@@H](CC[C@H]2c2ccccc2)OC12CCN(c1cc(-n3ccnc3)ncn1)CC2` [Example 4.171, (5′S,7a′R)-1-[6-(1H-imidazol-1-yl)pyrimidin-4-yl]-5′-phenyltetrahydro-3′H-spiro[piperidine-4,2′-pyrrolo[2,1-b] [1,3]oxazol]-3′-one], the EC50 is less than 25 nM.

As for `O=C(c1cc(O)ccc1F)N1CCC2(CC1)O[C@@H]1CC[C@@H](c3cc(F)cc(F)c3)N1C2=O` [Example 5.57, (5′S,7a′R)-5′-(3,5-difluoro-phenyl)-1-(2-fluoro-5-hydroxybenzoyl)tetra-hydro-3′H-spiro[piperidine-4,2′-pyrrolo[2,1-b]oxazol]-3'-one], the EC50 is less than 25 nM.

`COc1cc(F)cc([C@@H]2CC[C@H]3OC4(CCN(C(=O)c5ccccc5)CC4)C(=O)N32)c1` [Example 17.9, (5′S,7a′R)-1-benzoyl-5′-(3-fluoro-5-methoxyphenyl)tetrahydro-3′H-spiro[piperidine-4,2′-pyrrolo[2,1-b]oxazol]-3′-one]: the concentration giving a half-maximal response (EC50) is 40.7 nM.

For the molecule `Cc1cnn(-c2cc(N3CCC4(CC3)O[C@@H]3CC[C@@H](c5ccccc5)N3C4=O)ncn2)c1` [Example 4.176, (5′S,7a′R)-1-[6-(4-methyl-1H-pyrazol-1-yl)pyrimidin-4-yl]-5′-phenyltetrahydro-3′H-spiro[piperidine-4,2′-pyrrolo[2,1-b] [1,3]oxazol]-3′-one], the EC50 was determined as 48.8 nM.

For `O=C1N2[C@@H](CC[C@H]2c2ccccc2)OC12CCN(c1ccc(C3COC3)c3ccnn13)CC2` [Example 18.2, (5′S,7a′R)-1-[4-(oxetan-3-yl)pyrazolo[1,5-a]pyridin-7-yl]-5′-phenyltetrahydro-3′H-spiro[piperidine-4,2′-pyrrolo[2,1-b][1,3]oxazol]-3′-one], the EC50 came out at 27.6 nM.

Regarding `O=C1N2[C@@H](CC[C@H]2c2cc(F)cc(F)c2)OC12CCN(c1ncnn3ccnc13)CC2` [Example 4.228, (5′S,7a′R)-5′-(3,5-difluorophenyl)-1-(imidazo[2,1-f] [1,2,4]triazin-4-yl)tetrahydro-3′H-spiro[piperidine-4,2′-pyrrolo[2,1-b] [1,3]oxazol]-3′-one], the 50% effective concentration (EC50) was 78.9 nM.

Consider `Cc1nc(N2CCC3(CC2)O[C@@H]2CC[C@@H](c4cc(F)cc(F)c4)N2C3=O)ncc1OC(F)F` [Example 4.58, (5′S,7a′R)-1-[5-(difluoromethoxy)-4-methylpyrimidin-2-yl]-5′-(3,5-difluorophenyl)tetrahydro-3′H-spiro[piperidine-4,2′-pyrrolo[2,1-b] [1,3]oxazol]-3′-one], for which the half-maximal effective concentration (EC50) came out at 45.9 nM.
